Results as given in article PMC9544171, “Glucose‐dependent insulinotropic polypeptide receptor antagonist treatment causes a reduction in weight gain in ovariectomised high fat diet‐fed mice” (British Journal of Pharmacology, 2022).
One block for each compound: values may come before it. Where no end group is shown, it is not given here.

Experiments:
mouse GIP receptor [1] = biological target: T1, mouse GIP receptor (Mus musculus, UniProt Q0P543); experiment: cAMP accumulation, antagonism of mouse GIP(1‐42) in transfected COS‐7 cells; type: cell-based; settings: COS‐7 transiently transfected with mouse GIPR; 10 min preincubation with antagonist, then mouse GIP(1‐42) at 50%–80% of Emax for 20 min; HitHunter cAMP; Hill slope −1.0; n = 5 independent experiments; read-out: IC50, inhibition of mGIP‐induced cAMP accumulation, mouse GIPR
T1 construct: host or cells: COS-7
T1 sequence (Q0P543 19-460): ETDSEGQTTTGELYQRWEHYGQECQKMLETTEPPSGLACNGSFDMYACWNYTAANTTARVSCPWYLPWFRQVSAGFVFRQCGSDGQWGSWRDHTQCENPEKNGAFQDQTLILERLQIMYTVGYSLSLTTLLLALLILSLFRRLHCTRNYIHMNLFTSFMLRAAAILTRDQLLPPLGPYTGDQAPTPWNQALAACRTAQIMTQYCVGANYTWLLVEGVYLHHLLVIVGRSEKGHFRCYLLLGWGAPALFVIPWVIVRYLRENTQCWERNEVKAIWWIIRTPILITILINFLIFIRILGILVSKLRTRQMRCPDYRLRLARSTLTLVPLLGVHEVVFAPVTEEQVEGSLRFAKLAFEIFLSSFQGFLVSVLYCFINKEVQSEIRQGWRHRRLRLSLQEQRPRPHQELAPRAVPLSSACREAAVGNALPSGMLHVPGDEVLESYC
Procedure: (§1) COS‐7 cells were cultured at 10% CO2 and 37°C in Dulbecco's Modified Eagle Medium 1885 supplemented with 10% foetal bovine serum, 2‐mM glutamine, 180‐units ml^−1 penicillin and […] streptomycin. Transient transfection of the cells with either human or mouse GIP receptor was performed using the calcium phosphate precipitation method as previously described (van der Velden et al., [2021]). A second set of cells was transiently transfected with either mouse GLP‐1 or GLP‐2 receptor. Following the day after transfection, the cells were seeded in white 96‐well plates with a density of 35.000 cells per well. The next day the assay was initiated by washing the cells with HEPES buffered saline (HBS) followed by an incubation step with HBS and 1‐mM 3‐isobutyl‐1‐methylxanthine for 30 min at 37°C. For agonist studies, the ligands were then added and incubated for an additional 30 min at 37°C. To test for antagonistic properties, the cells were first preincubated for 10 min with the antagonist with subsequent addition of the agonist and incubated for an additional 20 min. The HitHunter® cAMP assay (Eurofins DiscoverX, Fremont, USA) was carried out according to the manufacturer's protocol. Luminescence was measured by PerkinElmer™ Envision 2014 Multilabel Reader.
To facilitate comparisons of assay outputs (cAMP assays), the results (of duplicate measurements) were normalized, with the response to 10 pM of GIP(1‐42) set as 100%. All ligand concentrations are reported as log‐transformed. The IC50 log values can be found in Figure 1. In Figure 3c, we have subtracted glucose levels from baseline to show the net differences in glucose levels in our different treatment groups. […]
Results are presented as mean ± SE. Data were analysed with one‐way and two‐way analysis of variance (ANOVA) with Tukey's or Sidak multiple comparisons test and Student's unpaired t tests where appropriate. […] For the in vitro data IC50 values were determined by nonlinear regression using GraphPad Prism 9 (San Diego, California, USA). […]

mouse GIP receptor [2] = biological target: T1, mouse GIP receptor; experiment: cAMP accumulation, agonism (intrinsic activity) in transfected COS‐7 cells; type: cell-based; settings: increasing concentrations of ligand alone, 30 min, COS‐7, n = 5
Procedure: as §1
(§2) To facilitate comparisons of assay outputs (cAMP assays), the results (of duplicate measurements) were normalized, with the response to 10 pM of GIP(1‐42) set as 100%. All ligand concentrations are reported as log‐transformed. The IC50 log values can be found in Figure 1. In Figure 3c, we have subtracted glucose levels from baseline to show the net differences in glucose levels in our different treatment groups.
FIGURE 1 In vitro signalling profile of mGIPAnt‐1 on the mouse and human glucose‐dependent insulinotropic polypeptide receptor/(GIPR). COS‐7 cells were transiently transfected with (a) mouse GIPR or (b) human GIPR and assayed for cAMP accumulation. To test for agonism, increasing concentration of the ligand was added. […]

Female C57Bl6/J mice = experiment: Intraperitoneal glucose tolerance test, inhibition of exogenous GIP; type: in vivo, mouse
Procedure: To assess the biological activity of mGIPAnt‐1, we performed an intraperitoneal glucose tolerance test. Mice were fasted for 4 h and given either mGIPAnt‐1 ([…]; s.c.) or vehicle at t = −90 min. Group sizes were as follows:‐ Vehicle + Vehicle, n = 10, Vehicle + GIP, n = 12 and mGIPAnt‐1 + GIP, n = 8. Varying group numbers were due to unsuccessful administration of one of the four compounds as confirmed by measurements of plasma concentrations. At t = −10 all mice were given an intraperitoneal (i.p.) injection with dipeptidyl peptidase‐4 (DPP‐4) inhibitor valine pyrrolidide followed by s.c. injection of either 25 nmol·kg^−1 GIP (Synthetic mouse GIP(1‐42) or vehicle. At t = 0 min, mice received an i.p. injection with 0.5‐g·kg^−1 glucose. Blood glucose was measured from the tail vein using a hand‐held glucometer (Accu‐Chek Mobile, Roche, Basel, Switzerland) at t = 0, 10, 30, 45, 60, 120 and 180 min. Retro‐orbital blood samples (50 μl) were taken using EDTA coated glass capillaries (Vitrex, Vasekær, Denmark) at t = 0, 15, 30 and 60, 120 and 180 min and centrifuged at 3500g, 20 min, 4°C. Plasma was transferred into Eppendorf tubes on dry ice and stored at −20°C for later insulin measurements.
as §2

human GIP receptor = biological target: T2, human GIP receptor (Homo sapiens, UniProt P48546); settings: previously shown, [2016], cited from earlier work
T2 construct: host or cells: COS-7
T2 sequence (P48546 22-466): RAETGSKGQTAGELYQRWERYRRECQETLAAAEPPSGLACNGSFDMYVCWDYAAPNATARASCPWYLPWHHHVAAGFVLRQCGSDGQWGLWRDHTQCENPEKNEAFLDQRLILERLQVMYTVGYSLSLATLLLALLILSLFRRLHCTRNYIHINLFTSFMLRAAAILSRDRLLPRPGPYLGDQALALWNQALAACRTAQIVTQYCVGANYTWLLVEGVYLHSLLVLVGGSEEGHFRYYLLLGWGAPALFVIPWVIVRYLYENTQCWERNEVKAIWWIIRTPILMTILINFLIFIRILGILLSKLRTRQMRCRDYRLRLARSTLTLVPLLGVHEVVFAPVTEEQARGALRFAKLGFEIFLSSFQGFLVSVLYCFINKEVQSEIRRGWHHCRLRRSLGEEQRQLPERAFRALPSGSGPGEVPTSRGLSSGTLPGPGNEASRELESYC
Procedure: The antagonistic properties of mGIPAnt‐1 were determined in vitro in cAMP accumulation before initiation of the in vivo studies in comparison to the naturally occurring […] GIP(3‐30)NH2. The experiments were done on both the human and mouse GIP receptor to examine the translatability between species. To keep the experiments species specific, mGIPAnt‐1 was compared to mouse GIP(3‐30)NH2 (mGIP(3‐30)NH2) on the mouse GIP receptor and human GIP(3‐30)NH2 (hGIP(3‐30)NH2) on the human GIP receptor. We also determined whether mGIPAnt‐1 had any intrinsic activity. Here we observed no activation of the ...

mouse GLP‐2 receptor = biological target: T3, mouse GLP‐2 receptor (Mus musculus, UniProt Q5IXF8); experiment: cAMP accumulation, agonism in transfected COS‐7 cells; type: cell-based; settings: increasing concentrations, COS‐7, n = 5
T3 construct: host or cells: COS-7
T3 sequence (Q5IXF8 1-512): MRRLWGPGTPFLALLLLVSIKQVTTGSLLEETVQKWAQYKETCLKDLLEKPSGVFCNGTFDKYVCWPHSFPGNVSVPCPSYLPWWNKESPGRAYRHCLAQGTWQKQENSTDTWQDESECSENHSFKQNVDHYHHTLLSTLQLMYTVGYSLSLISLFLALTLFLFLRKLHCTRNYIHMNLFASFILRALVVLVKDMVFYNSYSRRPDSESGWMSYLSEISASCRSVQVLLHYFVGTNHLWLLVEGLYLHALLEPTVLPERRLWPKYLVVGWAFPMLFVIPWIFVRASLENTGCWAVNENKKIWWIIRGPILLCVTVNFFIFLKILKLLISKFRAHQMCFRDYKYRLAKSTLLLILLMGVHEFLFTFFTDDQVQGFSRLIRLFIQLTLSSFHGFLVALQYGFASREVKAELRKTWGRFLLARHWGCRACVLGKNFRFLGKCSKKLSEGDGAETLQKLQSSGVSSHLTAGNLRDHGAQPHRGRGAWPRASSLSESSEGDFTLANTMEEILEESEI
Procedure: as §1
FIGURE 2 In vitro signalling profile of mGIPAnt‐1 on the mouse GLP‐1 and GLP‐2 receptor (R). […]

Compound: CC[C@H](C)[C@H](NC(=O)[C@H](CO)NC(=O)[C@H](Cc1ccc(O)cc1)NC(=O)[C@H](CC(=O)O)NC(=O)[C@H](CO)NC(=O)[C@@H](NC(=O)[C@H](Cc1ccccc1)NC(=O)[C@@H](NC(=O)CNC(=O)[C@@H](N)CCC(=O)O)[C@@H](C)O)[C@@H](C)CC)C(=O)N[C@@H](C)C(=O)N[C@@H](CCSC)C(=O)N[C@@H](CC(=O)O)C(=O)N[C@@H](CCCCN)C(=O)N[C@H](C(=O)N[C@@H](CCCNC(=N)N)C(=O)N[C@@H](CCC(N)=O)C(=O)N[C@@H](CCC(N)=O)C(=O)N[C@@H](CC(=O)O)C(=O)N[C@@H](Cc1ccccc1)C(=O)N[C@H](C(=O)N[C@@H](CC(N)=O)C(=O)N[C@@H](Cc1c[nH]c2ccccc12)C(=O)N[C@@H](CC(C)C)C(=O)N[C@@H](CC(C)C)C(=O)N[C@@H](C)C(=O)N[C@@H](CCC(N)=O)C(=O)N[C@@H](CCCNC(=N)N)C(N)=O)C(C)C)[C@@H](C)CC [mGIP(3‐30)NH2, mouse GIP(3‐30)NH2, reference compound]
IC50 (mouse GIP receptor [1]): 813 nM
intrinsic activity (activation of mouse GIP receptor, cAMP) (mouse GIP receptor [2]): neither did mGIP(3‐30)NH2 activate

Compound: Synthetic mouse GIP(1‐42) (YAEGTFISDYSIAMDKIRQQDFVNWLLAQRGKKSDWKHNITQ; Gastric inhibitory polypeptide; UniProt P48756 44-85, looked up) [reference compound]
baseline‐subtracted glucose curve during IPGTT (Female C57Bl6/J mice; mGIPAnt‐1 25 μmol·kg−1 s.c. t = −90 min, GIP 25 nmol·kg−1 s.c. and val‐pyr t = −10 min, glucose 0.5 g·kg−1 i.p., n = 8–12): lowered glucose levels significantly from t = 45 min and onwards
glucose levels relative to baseline late in IPGTT (Female C57Bl6/J mice; t = 120 and 180 min, same dosing as glucose curve): glucose levels dropped significantly below baseline at t = 120 and t = 180 min
incremental area under the glucose curve (iAUC), IPGTT (Female C57Bl6/J mice; vehicle + GIP 25 nmol·kg−1 versus vehicle + vehicle and versus mGIPAnt‐1 + GIP): significantly different

Compound: human GIP(3‐30)NH2 (EGTFISDYSIAMDKIHQQDFVNWLLAQK-NH2; UniProt P09681 54-81, looked up, fragment) [hGIP(3‐30)NH2]
intrinsic activity (activation of human GIP receptor) (human GIP receptor; ref Gabe et al., [2018], Gasbjerg et al., [2017], Hansen et al.): no activation
IC50 (human GIP receptor; ref Hansen et al., read-out: IC50, antagonism of human GIPR): 12 nM

activation of mouse GLP‐2 receptor (cAMP) (mouse GLP‐2 receptor): shown to activate their receptors
Compound: mGLP‐2: mouse GLP‐2, control agonist at the mouse GLP‐2 receptor (HADGSFSDEMSTILDNLATRDFINWLIQTKITD; Glucagon-like peptide 2; UniProt P55095 146-178, looked up) [reference compound]
